AC50, IC50 and EC50 data for six molecules are collected here from ChEMBL document CHEMBL1201862, “PubChem BioAssay data set” (2004).

Calls of active or inactive are those of the source.

The target of assay [1] is DNA topoisomerase (Yersinia pestis, UniProt A0A2S9PM60). As to the kind of experiment: Y. pestis Topo-I inhibitors, cleavage product readout, dose response, biochemical, cherry-pick (AID 588525).
Assay [2] has as its system INS1. The assay is described as follows: protection from cytokine-induced mitochondrial depolarization, dose response, cell-based, INS-1E, JC-1 fluorescence ratio, dry powder (AID 488931). The class given is functional. To be noted: Rattus norvegicus.
The subject of assay [3] is INS1. The assay is described as follows: protection from cytokine-driven beta-cell apoptosis, dose response, JC-1 fluorescence, INS-1E, dry powder, set 2 (AID 488867). Type of assay: functional, cell-based. To be noted: Rattus norvegicus.
The test system of assay [4] is Jurkat. As to the kind of experiment: SAR Analysis of small molecule inhibitors of T-cell specific antigen receptor-induced NF-kB activation in a Jurkat cell line using a luminescence assay - Set 2. [Related pubchem assays (depositor defined):AID435003, AID435012, AID465]. Particulars: Homo sapiens. Type of assay: functional, cell-based.
The test system of assay [5] is HEK293. The assay is described as follows: SAR Analysis of small molecule inhibitors of T-cell specific antigen receptor-induced NF-kB activation in a HEK-293T cell line using a luminescence assay - Set 2. [Related pubchem assays (depositor defined):AID435003, AID435012, AID489026]. Type of assay: functional, cell-based. Particulars: Homo sapiens.
Assay [6] has as its system HEK293. The assay is described as follows: cytotoxicity in HEK293T NF-kB-Luc cells, SAR follow-up, cytotoxicity control for NF-kB activator project, cell-based, resazurin fluorescence (AID 493251). Particulars: Homo sapiens. The class given is functional. Background: The colour change of resazurin is a common sign of viable cells or microbes.
Assay [7] deals with Beta-galactosidase (Escherichia coli, UniProt Q8VNN2). The assay is described as follows: PubChem AID 485352. Type of assay: functional.
Assay [8] deals with BJ. As to the kind of experiment: cytotoxicity toward BJ-TERT fibroblasts, dose response, cell-based, RAS-independent, luminescence (AID 1933). The class given is functional. Particulars: Homo sapiens.
Assay [9] deals with BJ. The assay is described as follows: cytotoxicity toward Ras-transformed BJeLR fibroblasts, dose response, cell-based, alamar blue fluorescence, cherrypicked samples (AID 2631).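 Note: confirmatory dose-response assay in RAS-dependent BJ fibroblasts engineered with TERT, LT and ST, with cytotoxicity read by fluorescence.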 Type of assay: functional. Particulars: Homo sapiens.
For assay [10], the system named is Streptococcus. As to the kind of experiment: Group A Streptococcus viability loss, dose response, counter-screen for streptokinase expression inhibitor project, luminescence, BacTiterGlo (AID 1915).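 Note: potency for reduction of bacterial viability or growth.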 Type of assay: functional, organism-based.
Assay [11] has as its system BJ. The assay is described as follows: cytotoxicity toward BJ-TERT-LT-ST fibroblasts, dose response, cell-based, RAS-independent, luminescence (AID 1935).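 Note: BJ fibroblasts immortalized with TERT plus LT and ST oncogenes.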 The class given is functional. Particulars: Homo sapiens.
In assay [12] the test system is Streptococcus sp. 'group A'. As to the kind of experiment: growth inhibition of control SK(-) GAS strain, dose response, counter-screen for streptokinase expression inhibitor project, luminescence, kanamycin, BacTiterGlo, confirmation (AID 1900). Type of assay: functional, organism-based. Background: A counterscreen serves to expose hits that act by an unwanted route or on another target.

Assay [13] has as its system BJ. As to the kind of experiment: cells. Type of assay: functional, cell-based. Particulars: Homo sapiens.
The nature of assay [14]: cytotoxicity toward DRD oncogenic fibroblasts, dose response, cell-based, non-viral oncogenic, luminescence (AID 1934). Type of assay: functional. Particulars: Homo sapiens.
Assay [15] addresses T1, Streptokinase A (Streptococcus pyogenes serotype M1, UniProt P10520).
T1 sequence (P10520 whole entry): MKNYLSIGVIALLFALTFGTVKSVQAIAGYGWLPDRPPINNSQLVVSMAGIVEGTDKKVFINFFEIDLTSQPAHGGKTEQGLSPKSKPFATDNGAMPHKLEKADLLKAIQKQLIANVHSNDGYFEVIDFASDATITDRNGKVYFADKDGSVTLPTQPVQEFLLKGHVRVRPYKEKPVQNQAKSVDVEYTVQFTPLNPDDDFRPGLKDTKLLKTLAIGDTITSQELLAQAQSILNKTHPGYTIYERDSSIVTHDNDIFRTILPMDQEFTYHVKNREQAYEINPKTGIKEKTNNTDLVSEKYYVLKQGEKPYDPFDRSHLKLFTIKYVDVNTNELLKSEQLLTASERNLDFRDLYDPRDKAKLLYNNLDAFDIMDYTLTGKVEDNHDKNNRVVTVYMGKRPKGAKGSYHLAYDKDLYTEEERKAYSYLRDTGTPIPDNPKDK
As to the kind of experiment: S. pyogenes streptokinase expression inhibitors, potency, dose response, plasminogen activation absorbance, OD405 (AID 1914).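 Note: secreted streptokinase activity via plasminogen activation per viability signal from cell pellet.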 Type of assay: functional, Streptococcus pyogenes M1 GAS.

A short description of assay [16]: HepG2 cell cytotoxicity, dose response, cytotoxicity control, ATP luminescence, cherry-pick, activator set 2 (AID 1053143). The class given is functional, cell-based.
Assay [17] in a line: cytotoxicity in HEK-293T cells, dose response, cytotoxicity control for TCR NF-kB inhibitor project, luminescence, T-cell screen hits (AID 489026).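 Note: cells exposed to compound about 14 hours before the viability readout.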 The class given is functional, cell-based.
The target in assay [18] is T2, Type-1 angiotensin II receptor (Homo sapiens, UniProt P30556).
T2 sequence (P30556 whole entry): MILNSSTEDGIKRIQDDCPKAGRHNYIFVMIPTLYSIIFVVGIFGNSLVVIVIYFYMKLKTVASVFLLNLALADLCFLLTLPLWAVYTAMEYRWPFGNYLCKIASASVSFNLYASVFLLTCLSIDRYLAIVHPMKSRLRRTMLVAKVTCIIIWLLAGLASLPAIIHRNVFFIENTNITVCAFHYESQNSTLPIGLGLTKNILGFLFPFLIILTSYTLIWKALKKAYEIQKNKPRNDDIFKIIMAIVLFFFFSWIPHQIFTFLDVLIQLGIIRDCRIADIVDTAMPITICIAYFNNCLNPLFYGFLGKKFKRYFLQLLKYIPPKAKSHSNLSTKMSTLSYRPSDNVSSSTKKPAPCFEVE
The assay is described as follows: AT1 receptor antagonists, dose response, selectivity assay for APJ receptor antagonist project, cell-based, uHTS hits (AID 463214).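 Note: antagonist potency against angiotensin II stimulated AT1 response.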 Type of assay: functional.

Assay [19] has as its target Phospholipase D2 (Homo sapiens, UniProt O14939). The assay is described as follows: PLD2 inhibitor potency in cells, dose response (AID 602147).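 Note: cellular assay in HEK293 cells overexpressing GFP-tagged PLD2.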 The class given is functional.
In assay [20] the target is T3, Phospholipase D1 (Homo sapiens, UniProt Q13393).
T3 sequence (Q13393 whole entry): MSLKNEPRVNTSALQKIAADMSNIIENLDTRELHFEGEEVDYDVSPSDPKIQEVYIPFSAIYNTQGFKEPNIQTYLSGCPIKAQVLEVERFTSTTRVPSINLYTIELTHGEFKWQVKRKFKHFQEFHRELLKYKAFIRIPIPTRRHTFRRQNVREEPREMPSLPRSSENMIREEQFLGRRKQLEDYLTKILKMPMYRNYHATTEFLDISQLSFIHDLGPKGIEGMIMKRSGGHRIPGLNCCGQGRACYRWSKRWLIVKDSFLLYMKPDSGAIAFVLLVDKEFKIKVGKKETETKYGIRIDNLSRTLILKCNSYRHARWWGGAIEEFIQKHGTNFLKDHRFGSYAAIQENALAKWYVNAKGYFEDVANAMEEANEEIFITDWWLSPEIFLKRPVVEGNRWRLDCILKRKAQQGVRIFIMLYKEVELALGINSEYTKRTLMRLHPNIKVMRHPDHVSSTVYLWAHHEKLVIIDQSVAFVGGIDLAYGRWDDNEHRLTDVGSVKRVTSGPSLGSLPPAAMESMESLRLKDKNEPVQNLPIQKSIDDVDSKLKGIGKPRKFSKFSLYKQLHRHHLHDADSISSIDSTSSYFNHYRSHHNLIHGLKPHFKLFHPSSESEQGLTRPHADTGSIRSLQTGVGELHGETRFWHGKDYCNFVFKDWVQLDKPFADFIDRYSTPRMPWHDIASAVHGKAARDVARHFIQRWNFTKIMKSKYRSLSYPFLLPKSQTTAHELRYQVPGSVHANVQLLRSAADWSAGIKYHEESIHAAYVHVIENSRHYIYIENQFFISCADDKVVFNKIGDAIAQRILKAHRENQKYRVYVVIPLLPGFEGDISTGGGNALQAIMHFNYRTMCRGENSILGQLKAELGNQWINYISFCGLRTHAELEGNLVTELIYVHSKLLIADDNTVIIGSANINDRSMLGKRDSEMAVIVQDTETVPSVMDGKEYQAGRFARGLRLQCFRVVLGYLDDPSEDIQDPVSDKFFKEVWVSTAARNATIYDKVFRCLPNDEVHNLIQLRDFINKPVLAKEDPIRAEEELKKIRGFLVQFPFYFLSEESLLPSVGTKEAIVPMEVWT
The assay is described as follows: PLD1 inhibitor potency in cells, dose response (AID 602151).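 Note: cellular PLD1 assay in Calu-1 cells stimulated with PMA.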 Type of assay: functional.

Assay [21] deals with T4, Beta-adrenergic receptor kinase 1 (Homo sapiens, UniProt P25098).
T4 sequence (P25098 whole entry): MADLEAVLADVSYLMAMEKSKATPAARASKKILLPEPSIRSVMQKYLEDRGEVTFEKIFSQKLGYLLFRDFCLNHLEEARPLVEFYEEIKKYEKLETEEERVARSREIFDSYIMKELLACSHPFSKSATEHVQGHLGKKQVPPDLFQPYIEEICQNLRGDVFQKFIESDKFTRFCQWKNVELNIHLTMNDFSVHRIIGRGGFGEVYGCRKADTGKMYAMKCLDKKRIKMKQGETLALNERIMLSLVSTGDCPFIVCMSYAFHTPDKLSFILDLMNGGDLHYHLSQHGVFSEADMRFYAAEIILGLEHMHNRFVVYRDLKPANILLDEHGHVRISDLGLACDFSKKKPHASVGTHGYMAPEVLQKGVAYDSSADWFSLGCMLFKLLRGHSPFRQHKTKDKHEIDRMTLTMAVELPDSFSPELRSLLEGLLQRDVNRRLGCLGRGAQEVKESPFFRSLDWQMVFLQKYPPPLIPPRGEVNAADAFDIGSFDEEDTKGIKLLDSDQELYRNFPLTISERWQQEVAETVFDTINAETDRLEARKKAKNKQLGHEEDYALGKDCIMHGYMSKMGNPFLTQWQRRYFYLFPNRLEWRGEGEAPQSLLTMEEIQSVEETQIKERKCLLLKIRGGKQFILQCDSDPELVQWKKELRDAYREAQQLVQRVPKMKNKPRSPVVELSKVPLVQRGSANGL
As to the kind of experiment: GRK2 inhibitors displacing RNA aptamer, dose response, biochemical, flow cytometry beads, FAM-aptamer, powder set 1 (AID 588720). (Flow cytometry measures light scatter and fluorescence of single cells or particles in a stream.)

Assay [22] deals with DNA dC->dU-editing enzyme APOBEC-3G (Homo sapiens, UniProt Q9HC16). Type of assay: functional.
For assay [23], the target named is T4, Beta-adrenergic receptor kinase 1. The assay is described as follows: aptamer displacement from bead-bound GRK2 – biochemical, cherry pick 1, bead flow cytometry, dose response (AID 504500).
Assay [24] deals with Estrogen receptor beta (Homo sapiens, UniProt Q92731).
Assay [25] concerns the target DNA dC->dU-editing enzyme APOBEC-3A (Homo sapiens, UniProt P31941). The assay is described as follows: Dose Response confirmation of small molecule APOBEC3A DNA Deaminase Inhibitors via a fluorescence-based single-stranded DNA deaminase assay. [Related pubchem assays (depositor defined):AID493011, AID493024]. The class given is functional.

Chain of Estrogen receptor beta (Q92731 whole entry): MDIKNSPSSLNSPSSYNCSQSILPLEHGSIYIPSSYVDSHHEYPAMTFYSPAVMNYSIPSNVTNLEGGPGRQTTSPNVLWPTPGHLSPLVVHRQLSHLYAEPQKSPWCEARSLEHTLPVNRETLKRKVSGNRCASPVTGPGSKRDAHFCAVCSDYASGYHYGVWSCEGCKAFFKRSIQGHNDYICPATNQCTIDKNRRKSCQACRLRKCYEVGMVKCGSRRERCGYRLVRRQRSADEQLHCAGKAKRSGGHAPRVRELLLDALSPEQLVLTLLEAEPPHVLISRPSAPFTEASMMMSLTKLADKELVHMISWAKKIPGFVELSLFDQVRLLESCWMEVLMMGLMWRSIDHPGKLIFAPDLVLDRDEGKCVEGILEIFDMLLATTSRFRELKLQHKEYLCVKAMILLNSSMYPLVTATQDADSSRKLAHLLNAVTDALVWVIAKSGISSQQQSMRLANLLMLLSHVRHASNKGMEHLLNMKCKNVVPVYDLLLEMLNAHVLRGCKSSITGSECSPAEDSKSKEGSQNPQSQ
Chain of Phospholipase D2 (O14939 whole entry): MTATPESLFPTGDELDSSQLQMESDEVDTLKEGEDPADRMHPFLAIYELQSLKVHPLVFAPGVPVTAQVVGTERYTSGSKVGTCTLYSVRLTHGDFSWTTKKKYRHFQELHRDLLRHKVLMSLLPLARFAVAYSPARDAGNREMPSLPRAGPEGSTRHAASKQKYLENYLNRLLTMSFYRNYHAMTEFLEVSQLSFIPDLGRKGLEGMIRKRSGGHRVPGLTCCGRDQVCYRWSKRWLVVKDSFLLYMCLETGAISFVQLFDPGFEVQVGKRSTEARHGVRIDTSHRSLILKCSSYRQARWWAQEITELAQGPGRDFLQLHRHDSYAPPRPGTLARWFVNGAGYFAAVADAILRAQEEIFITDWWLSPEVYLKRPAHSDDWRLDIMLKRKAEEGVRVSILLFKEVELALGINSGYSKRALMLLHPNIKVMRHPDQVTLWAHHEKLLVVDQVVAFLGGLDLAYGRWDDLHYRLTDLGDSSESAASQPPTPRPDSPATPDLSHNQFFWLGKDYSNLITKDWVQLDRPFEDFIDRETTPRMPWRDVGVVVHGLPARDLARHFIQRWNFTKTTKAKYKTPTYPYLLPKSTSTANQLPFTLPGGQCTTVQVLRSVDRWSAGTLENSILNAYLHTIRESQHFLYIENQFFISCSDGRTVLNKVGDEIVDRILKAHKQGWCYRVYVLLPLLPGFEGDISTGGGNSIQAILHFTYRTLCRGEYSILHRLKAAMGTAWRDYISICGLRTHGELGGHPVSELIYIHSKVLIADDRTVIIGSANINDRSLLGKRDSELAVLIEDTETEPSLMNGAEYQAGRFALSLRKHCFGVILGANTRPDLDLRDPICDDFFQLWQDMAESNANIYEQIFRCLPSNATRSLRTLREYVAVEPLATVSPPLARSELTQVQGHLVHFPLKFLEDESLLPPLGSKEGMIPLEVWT
Chain of DNA dC->dU-editing enzyme APOBEC-3G (Q9HC16 whole entry): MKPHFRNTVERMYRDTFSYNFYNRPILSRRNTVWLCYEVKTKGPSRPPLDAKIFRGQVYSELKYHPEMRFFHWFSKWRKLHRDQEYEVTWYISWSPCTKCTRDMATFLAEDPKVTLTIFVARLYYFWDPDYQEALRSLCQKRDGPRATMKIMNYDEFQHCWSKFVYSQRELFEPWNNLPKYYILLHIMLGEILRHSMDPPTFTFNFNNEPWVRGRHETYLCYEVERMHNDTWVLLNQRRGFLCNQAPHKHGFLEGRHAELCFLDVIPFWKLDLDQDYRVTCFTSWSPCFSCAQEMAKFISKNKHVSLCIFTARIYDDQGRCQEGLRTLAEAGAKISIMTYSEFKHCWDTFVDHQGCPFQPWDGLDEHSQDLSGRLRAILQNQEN
Chain of DNA topoisomerase (A0A2S9PM60 whole entry): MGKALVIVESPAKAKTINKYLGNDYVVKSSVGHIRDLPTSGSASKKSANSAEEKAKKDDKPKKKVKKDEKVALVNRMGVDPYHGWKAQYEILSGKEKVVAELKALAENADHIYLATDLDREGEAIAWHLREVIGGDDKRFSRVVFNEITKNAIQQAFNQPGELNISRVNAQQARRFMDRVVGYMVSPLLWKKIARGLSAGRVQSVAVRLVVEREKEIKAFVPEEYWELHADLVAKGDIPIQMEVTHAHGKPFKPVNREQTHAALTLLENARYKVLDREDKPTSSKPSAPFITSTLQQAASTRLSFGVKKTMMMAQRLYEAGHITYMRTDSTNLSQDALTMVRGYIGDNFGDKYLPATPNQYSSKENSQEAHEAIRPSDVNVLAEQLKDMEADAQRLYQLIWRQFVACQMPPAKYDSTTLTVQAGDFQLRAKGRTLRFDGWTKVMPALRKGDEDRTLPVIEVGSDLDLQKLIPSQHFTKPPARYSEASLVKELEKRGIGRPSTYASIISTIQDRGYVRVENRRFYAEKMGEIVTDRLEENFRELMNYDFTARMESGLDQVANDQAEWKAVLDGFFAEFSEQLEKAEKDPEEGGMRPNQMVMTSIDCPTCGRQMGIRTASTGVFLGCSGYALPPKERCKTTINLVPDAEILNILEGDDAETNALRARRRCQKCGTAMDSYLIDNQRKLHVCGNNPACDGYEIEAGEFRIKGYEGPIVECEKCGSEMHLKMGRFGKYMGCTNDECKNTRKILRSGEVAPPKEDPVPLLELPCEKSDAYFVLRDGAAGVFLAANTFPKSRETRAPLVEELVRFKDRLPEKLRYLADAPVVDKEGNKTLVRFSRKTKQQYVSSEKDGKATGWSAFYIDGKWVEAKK
Chain of Beta-galactosidase (Q8VNN2 whole entry): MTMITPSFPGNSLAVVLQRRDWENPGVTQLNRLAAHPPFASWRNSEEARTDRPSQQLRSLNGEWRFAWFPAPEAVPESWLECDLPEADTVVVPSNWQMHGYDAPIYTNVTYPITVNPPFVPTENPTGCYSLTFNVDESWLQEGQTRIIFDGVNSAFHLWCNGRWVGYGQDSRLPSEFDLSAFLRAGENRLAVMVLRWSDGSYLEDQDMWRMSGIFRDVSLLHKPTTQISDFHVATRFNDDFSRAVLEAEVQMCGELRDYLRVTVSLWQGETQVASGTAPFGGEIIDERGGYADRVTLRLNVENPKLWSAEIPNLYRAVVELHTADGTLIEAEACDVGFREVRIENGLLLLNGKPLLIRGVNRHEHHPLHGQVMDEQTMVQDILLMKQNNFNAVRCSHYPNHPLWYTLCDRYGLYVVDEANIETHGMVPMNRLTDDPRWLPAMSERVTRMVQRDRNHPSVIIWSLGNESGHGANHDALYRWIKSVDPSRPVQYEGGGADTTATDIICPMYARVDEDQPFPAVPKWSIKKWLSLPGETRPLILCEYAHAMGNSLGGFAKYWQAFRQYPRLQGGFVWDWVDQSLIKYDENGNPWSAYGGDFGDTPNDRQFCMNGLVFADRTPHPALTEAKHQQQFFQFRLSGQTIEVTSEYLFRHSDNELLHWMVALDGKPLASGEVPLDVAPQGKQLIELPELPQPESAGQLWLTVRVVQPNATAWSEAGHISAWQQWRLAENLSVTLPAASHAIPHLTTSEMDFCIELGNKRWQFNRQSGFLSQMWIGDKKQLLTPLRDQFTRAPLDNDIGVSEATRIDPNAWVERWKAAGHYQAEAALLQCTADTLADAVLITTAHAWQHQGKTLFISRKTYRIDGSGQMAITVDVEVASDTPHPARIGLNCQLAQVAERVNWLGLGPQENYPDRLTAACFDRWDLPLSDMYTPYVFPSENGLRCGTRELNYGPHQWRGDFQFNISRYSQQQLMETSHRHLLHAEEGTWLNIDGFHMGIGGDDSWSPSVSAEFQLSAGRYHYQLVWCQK
Chain of DNA dC->dU-editing enzyme APOBEC-3A (P31941 whole entry): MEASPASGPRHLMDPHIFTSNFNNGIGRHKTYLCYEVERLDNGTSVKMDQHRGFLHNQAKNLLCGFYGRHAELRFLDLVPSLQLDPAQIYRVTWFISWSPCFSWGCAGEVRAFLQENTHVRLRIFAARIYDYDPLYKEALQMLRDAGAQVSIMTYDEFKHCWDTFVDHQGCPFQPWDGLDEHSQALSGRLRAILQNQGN

Take `O=C(Nc1ccccc1Cl)OCC#CCOC(=O)Nc1ccccc1Cl`: the AC50 in [1] is 12.6 µM (active).
Consider `COc1ccc(S(=O)(=O)N(C)C[C@@H]2Oc3c(NC(=O)Nc4cccc5ccccc45)cccc3C(=O)N([C@@H](C)CO)C[C@H]2C)cc1OC`, for which the AC50 is 85 µM (active) in assay [2] and 116 µM (active) in assay [3].
In the case of `COc1ccc(C(=O)Nc2ccc(NC(=O)c3cc4ccccc4o3)cc2)cc1Br`, the figures for the IC50 in assay [4], in [5] and in [6] were > 79 µM (inactive), > 80 µM (inactive) and > 80 µM (inactive), respectively.
As for `COc1cc(/C=C/c2ccc3cccc(O)c3n2)cc(OC)c1OC`, the EC50 in assay [7] was > 40 µM (inactive); in [8], 1.26 µM (active); in [9], 2.96 µM (inconclusive); in [10], 15.6 µM (active); in assay [11], 1.2 µM (inconclusive); in assay [12], 2.28 µM (active). For the same molecule, the EC50 is 47.8 µM (inconclusive) in [13], 1.5 µM (active) in assay [14] and > 150 µM (not active) in assay [15]. In addition, the AC50 in assay [16] is 9.5 µM (active). The IC50 in assay [17] is > 80 µM (inactive); in [18], 6.2 µM (active).
Turning to `O=C(NCCN1CCC2(CC1)C(=O)NCN2c1cccc(F)c1)c1ccc2c(c1)C(=O)OC2=O`, the results for the IC50 in assay [19] and in assay [20] were 0.265 µM (active) and 5.55 µM (active), respectively.
Turning to `Cc1cc(=O)[nH]c(SCC(=O)NCc2ccco2)n1`, the EC50 is 44.9 µM (active) in [21] and 22.1 µM (inactive) in [23]. Further, the IC50 was 43.4 µM (active) in [22], 6.27 µM (active) in assay [24] and 17.4 µM (active) in assay [25].

What is called AC50 is the concentration at which the activity in the assay is half-maximal. One may read the IC50 as the concentration that inhibits the measured activity by half. What is called EC50 is the concentration needed to bring the measured effect to its halfway point.
